Results: ChEMBL document CHEMBL4219041, “Improving oral bioavailability of cyclic peptides by N-methylation” (Bioorg Med Chem, 2018)
Square brackets hold non-standard residues; d marks the D form. Peptide text beside a SMILES is read from it. dNMeW = CN[C@H](Cc1c[nH]c2ccccc12)C(=O)O; NMeF = CN[C@@H](Cc1ccccc1)C(=O)O; NMeK = CN[C@@H](CCCCN)C(=O)O

Assays:
[1] = Efflux ratio of apparent permeability from basolateral to apical over apical to basolateral side in human Caco2 cells; assay type: ADME, cell-based; conditions: Caco-2
[2] = Oral bioavailability in rat at 10 mg/kg; assay type: ADME, organism-based; conditions: in vivo

efflux ratio [1] | bioavailability [2] | SMILES
2.05 |  | C[C@@H]1NC(=O)[C@H](C)NC(=O)[C@@H](C)N(C)C(=O)[C@H](C)N(C)C(=O)[C@H](C)NC(=O)[C@H](C)NC1=O
 | 10% | C[C@@H](O)[C@@H]1NC(=O)[C@H](CCCCN)N(C)C(=O)[C@@H](Cc2c[nH]c3ccccc23)N(C)C(=O)[C@H](Cc2ccccc2)NC(=O)[C@@H]2CCCN2C(=O)[C@H](Cc2ccccc2)N(C)C1=O (cyclo(F[dNMeW][NMeK]T[NMeF]P))
1.93 |  | C[C@@H]1NC(=O)[C@H](C)NC(=O)[C@@H](C)N(C)C(=O)[C@H](C)NC(=O)[C@H](C)N(C)C(=O)[C@H](C)NC1=O
0.08 |  | C[C@@H]1NC(=O)[C@H](C)N(C)C(=O)[C@H](C)N(C)C(=O)[C@H](C)NC(=O)[C@@H](C)N(C)C(=O)[C@H](C)N(C)C1=O
1.97 |  | C[C@@H]1NC(=O)[C@H](C)N(C)C(=O)[C@H](C)N(C)C(=O)[C@H](C)NC(=O)[C@H](C)N(C)C(=O)[C@@H](C)N(C)C1=O
